{"source": "patent US20190017067A1", "about": "“[…] PLANTS HAVING MODIFIED 5-ENOLPYRUVYLSHIKIMATE-3-PHOSPHATE SYNTHASE GENE REGULATION” (Regents of the University of Minnesota, priority 2016, published 2019)", "assay_type_in_all_cases": "in vivo, cassava (Manihot esculenta)", "key": {"[1]": {"tested_on": "cassava plants transgenic for H064 (DFP promoter driving the TIPA EPSPS sequence)", "experiment": "Greenhouse glyphosate challenge, visual damage score", "conditions": "four independent lines, assay as for FIG. 6 (50 mg active ingredient per plant; 1=no damage, 7=plant death)", "protocol": "(§1) Plants transgenic for 2×35S and native EPSPS promoter expression cassettes were established in the greenhouse following procedures described elsewhere (Taylor et al., 2012 Tropical Plant Biology, 5: 127-139; and Chauhan et al., 2015 Plant Cell Tissue and Organ Culture 121: 591-603). Glyphosate 5.4 was prepared in a solution containing Surface surfactant and applied to leaves of 4-5 week old plants. Glyphosate was applied at a rate of 50 mg active ingredient per plant in a dropwise manner to the youngest 1-2 fully expanded leaves. Plants were grown on the greenhouse bench under conditions described elsewhere (Taylor et al., 2012 Tropical Plant Biology, 5: 127-139; and Chauhan et al., 2015 Plant Cell Tissue and Organ Culture 121: 591-603). Three times per week plants were scored visually on a 1-7 scale for damaged caused by the glyphosate application, where 1=no damage and 7=death.\n(§2) To test the suitability of the two best promoter candidates for driving EPSPS expression, the RB1 and DFP promoters were used to drive expression of TIPA gene models (as shown in FIG. 12) transformed into cassava as described for the other gene models in Example 2. Independent lines were challenged with glyphosate as described for the other gene models in Example 6."}, "[2]": {"tested_on": "cassava plants transgenic for H063 (RB1 promoter driving the TIPA EPSPS sequence)", "experiment": "Greenhouse glyphosate challenge, visual damage score", "conditions": "two independent lines, assay as for FIG. 6 (50 mg active ingredient per plant; 1=no damage, 7=plant death)", "protocol": "as §1, §2"}, "[3]": {"tested_on": "shoots of transgenic events expressing high levels of the T102I/P106A (TIPA) enzyme", "experiment": "In vitro rooting test on glyphosate-containing media", "conditions": "media containing 0.05 mM glyphosate; compared to events expressing the gene variant at lower levels; p=0.00", "source_text": "Gene models are shown in FIG. 2, and indicated as follows: H001, WT EPSPS driven by the TME7 EPSPS promoter; H002, T102I/P106A EPSPS driven by the TME7 EPSPS promoter; H003, WT EPSPS driven by the 2×35s promoter; H004, T102I/P106A EPSPS driven by the 2×35s promoter.\n(§3) Plantlets were regenerated from five independent transformation events with each gene model vector. Apical stem cuttings approximately 1.5 cm in length were excised from in vitro shoot cultures of transgenic plant lines and cultured on Murashige and Skoog basal media supplemented with 0.05 mM glyphosate. A total of five Petri dishes were established per transgenic event with three plantlets cultured in each dish.\n(§4) Plants were monitored for a period of three weeks. The number of roots formed, length of roots, shoot vigor, and overall plant health were recorded at weekly intervals."}, "[4]": {"tested_on": "non-transgenic cassava stem cuttings", "experiment": "In vitro rooting test on glyphosate-containing media", "conditions": "glyphosate added to the medium at 0.05 mM", "protocol": "Experiments were conducted to access the effects of glyphosate on in vitro rooting by culturing non transgenic shoots on media containing different concentrations of glyphosate ranging from 0.001 mM to 1.0 mM.\nas §3, §4"}, "[5]": {"tested_on": "cassava plants edited with the H056 vector (double 35s promoter driving the TIPA enzyme)", "experiment": "Greenhouse glyphosate challenge of gene-edited plants", "conditions": "H056 edited event; 50 mg active ingredient per plant; assay as for FIG. 6; compared with H004 event", "protocol": "as §1\nVectors containing gene editing reagents described in Example 8 were introduced into cassava callus via Agrobacterium transformation (for example, SEQ ID NOs: 11-14). The vectors were designed to repair the EPSPS promoter excision event either by HR or NHEJ from a standard T-DNA (H055; SEQ ID NO: 11), by HR only from a standard T-DNA (H056; SEQ ID NO: 12), or by HR only from a geminivirus replicon (H060; SEQ ID NO: 14). […]"}, "[6]": {"tested_on": "cassava plants transgenic for H013 (EPSPS promoter driving the TIPI (T102I/P106I) EPSPS sequence)", "experiment": "Greenhouse glyphosate challenge, visual damage score", "conditions": "50 mg active ingredient per plant applied dropwise to leaves of 4-5 week old plants, scored three times weekly, 1=no damage, 7=plant death", "protocol": "as §1"}, "[7]": {"tested_on": "cassava plants transgenic for H010 (double 35S promoter driving the GAAT EPSPS sequence)", "experiment": "Greenhouse glyphosate challenge, visual damage score", "conditions": "50 mg active ingredient per plant applied dropwise to leaves of 4-5 week old plants, scored three times weekly, 1=no damage, 7=plant death", "protocol": "as §1"}, "[8]": {"tested_on": "cassava plants transgenic for H009 (EPSPS promoter driving the GAAT (G101A/A192T) EPSPS sequence)", "experiment": "Greenhouse glyphosate challenge, visual damage score", "conditions": "50 mg active ingredient per plant applied dropwise to leaves of 4-5 week old plants, scored three times weekly, 1=no damage, 7=plant death", "protocol": "as §1"}, "[9]": {"tested_on": "cassava plants transgenic for H014 (double 35S promoter driving the TIPI EPSPS sequence)", "experiment": "Greenhouse glyphosate challenge, visual damage score", "conditions": "50 mg active ingredient per plant applied dropwise to leaves of 4-5 week old plants, scored three times weekly, 1=no damage, 7=plant death", "protocol": "as §1"}, "[10]": {"tested_on": "WT non-transgenic cassava plant (susceptible control)", "experiment": "Greenhouse glyphosate challenge, phenotype", "conditions": "50 mg active ingredient per plant, 21 days after application (FIG. 7)", "protocol": "as §1"}}, "note": "“Also recorded” adds a separate entry of the source."}
{"smiles": "O=C(O)CNCP(=O)(O)O", "note": "[glyphosate]", "values": [{"measurement": "average damage to the shoots, scale of 1-7", "setting": "[1]", "result": "around 4"}, {"measurement": "average damage to the shoots, scale of 1-7", "setting": "[2]", "result": "3-4"}, {"measurement": "number and length of roots formed", "setting": "[3]", "result": "more and longer roots"}, {"measurement": "effect on in vitro rooting and shoots", "setting": "[4]", "result": "Inhibited root formation and shoot death"}, {"measurement": "glyphosate tolerance of edited plants (damage over time)", "setting": "[5]", "result": "equivalent to the best H004 event recovered; also recorded: equivalent to performance of the best H004"}, {"measurement": "average damage to the shoots, scale of 1-7", "setting": "[6]", "result": "4-5.5"}, {"measurement": "average damage to the shoots, scale of 1-7", "setting": "[7]", "result": "3-4"}, {"measurement": "average damage to the shoots, scale of 1-7", "setting": "[8]", "result": "4-6.5"}, {"measurement": "average damage to the shoots, scale of 1-7", "setting": "[9]", "result": "1-3.5"}, {"measurement": "phenotype after herbicide challenge", "setting": "[10]", "result": "complete killing"}]}
